Where a name gives a salt, the structure may show the parent alone. Read-outs that look alike come from different tables or passages of the source.
Columns and labels:
[1] = Chiral plasma pharmacokinetics of MDMA and its phase I and II metabolites after controlled MDMA administration; format: in vivo, human; conditions: for AUC(0-t) / Cmax / half-life / Tmax: human, plasma; for AUC(0-t): read-out: AUC0-24h S; for Cmax: read-out: Cmax S; for half-life: read-out: t1/2 S (converted); for Tmax: read-out: tmax S; for change in AUC24 after bupropion pretreatment / change in Cmax after bupropion pretreatment: bupropion+MDMA vs placebo+MDMA, unsigned = increase
Method: Blood plasma samples were analyzed non-stereoselectively as reported previously and reanalyzed for the present report using liquid chromatography-mass spectrometry/mass spectrometry after chiral derivatization with Marfey’s reagent as described previously. The method was fully validated, including selectivity, recovery, matrix effects, bias and imprecision, stability, and limit of quantification.

[2] = 125 mg single dose; ref [3, 61]; cited from earlier work
[3] = test system: serotonin transporter; conditions: four weeks after MDMA 1.5-1.7 mg/kg, MDMA-naïve volunteers; ref [123, 124]; cited from earlier work
[4] = Chiral plasma pharmacokinetics of bupropion and hydroxybupropion; conditions: for effect of MDMA co-administration on plasma concentrations: bupropion+MDMA vs bupropion+placebo; for half-life: both, human, plasma, oral
[5] = test system: DAT; set-up: method as in ref [15] (a number printed in a supplementary file, which may have a reference list of its own: not looked up in the article's list); conditions: rat synaptosomes, without bupropion; ref [15]; read-out: EC50 of DAT-mediated amphetamine-induced DA release; cited from earlier work
[6] = set-up: method as in ref [46] (a number printed in a supplementary file, which may have a reference list of its own: not looked up in the article's list); conditions: ref [46]; cited from earlier work
[7] = test system: DAT; conditions: cited from earlier work
[8] = bupropion vs placebo pretreatment
[9] = both sexes, oral, 125 mg, placebo+MDMA (125 mg), CYP2D6 EM, n=13, plasma
[10] = both sexes, oral, bupropion+MDMA (125 mg), CYP2D6 EM (EM/Bup), n=13, plasma
[11] = bupropion+MDMA (125 mg), CYP2D6 EM (EM/Bup), n=13, plasma
[12] = bupropion-pretreated CYP2D6 EMs
[13] = im, placebo+MDMA (125 mg), CYP2D6 IM, n=3, plasma
[14] = placebo+MDMA (125 mg), CYP2D6 EM, n=13, plasma
[15] = placebo+MDMA (125 mg), CYP2D6 IM, n=3, plasma
[16] = placebo-pretreated EMs, same-configuration MDMA enantiomer
[17] = bupropion vs placebo pretreatment, CYP2D6 EMs

| SMILES | effect of MDMA co-administration on plasma concentrations [4] | AUC(0-t) [1, 9] [µM·h] | Cmax [1, 9] [nM] | half-life [1, 9] [h] | Tmax [1, 9] [h] | AUC(0-t) [1, 10] [µM·h] | Cmax [1, 10] [nM] | half-life [1, 10] [h] | Tmax [1, 10] [h] | AUCtotal S [1, 11] | change in AUC24 after bupropion pretreatment ([1]; CYP2D6 EMs) [%] | change in Cmax after bupropion pretreatment ([1]; CYP2D6 EMs) [%] | AUC(0-t) [1, 13] [µM·h] | Cmax [1, 13] [nM] | half-life [1, 13] [h] | Tmax [1, 13] [h] | AUCtotal S [1, 14] | AUCtotal S [1, 15] | other results |
| --- | --- | --- | --- | --- | --- | --- | --- | --- | --- | --- | --- | --- | --- | --- | --- | --- | --- | --- | --- |
| CNC(C)Cc1ccc2c(c1)OCO2 (stereo not drawn) [MDMA, 3,4-methylenedioxymethamphetamine] |  |  |  |  |  |  |  |  |  |  |  |  |  |  |  |  |  |  | mean overall effect on R/S ratios ([1]; CYP2D6 inhibition by bupropion): less than 10%; change of R/S ratio for AUC24 after bupropion pretreatment [1, 8]: -9%; change of R/S ratio for Cmax after bupropion pretreatment [1, 8]: -6%; T1/2 [2]: 9.6 h; Tmax [2]: 2.5 h; change in serotonin transporter density [3]: No changes |
| C[C@H]1NC(C)(C)CO[C@]1(O)c1cccc(Cl)c1 [R,R-hydroxybupropion, hydroxybupropion] | did not significantly alter |  |  |  |  |  |  |  |  |  |  |  |  |  |  |  |  |  |  |
| C[C@@H](NC(C)(C)C)C(=O)c1cccc(Cl)c1 [R-bupropion, bupropion] | did not significantly alter |  |  |  |  |  |  |  |  |  |  |  |  |  |  |  |  |  | half-life ([4]; 300 mg, t1/2 R/ R,R, bupropion+placebo (P), CYP2B6 genotype normal): 8.4 h; half-life ([4]; 300 mg, t1/2 R/ R,R, bupropion+placebo (P), CYP2B6 genotype reduced): 8.9 h; half-life ([4]; t1/2 R/ R,R, bupropion+MDMA (M), CYP2B6 genotype normal): 8.5 h; half-life ([4]; t1/2 R/ R,R, bupropion+MDMA (M), CYP2B6 genotype reduced): 7.5 h |
| C[C@@H]1NC(C)(C)CO[C@@]1(O)c1cccc(Cl)c1 [S,S-hydroxybupropion, hydroxybupropion] | did not significantly alter |  |  |  |  |  |  |  |  |  |  |  |  |  |  |  |  |  |  |
| CNC(C)Cc1ccc(OC2OC(C(=O)O)C(O)C(O)C2O)c(OC)c1 (stereo not drawn) [S-HMMA glucuronide] |  | 5.2 | 490 | 6.1 | 2.9 | 1.3 | 88 | 9 | 4.9 | 1.7 (1.0) μmol/l*h-1 | -74 | -82 | 1.3 | 99 | 7.1 | 4 | 5.5 (3.9) μmol/l*h-1 | 1.5 (0.83) μmol/l*h-1 | metabolite/MDMA ratio, mean constant (after approximately 2 h) ([1]; IMs): 0.20; metabolite/MDMA ratio, mean initial (highest, first hour) ([1]; IMs): 0.30; tonset (time of first detection), mean [1, 12]: 0.71 h; metabolite/MDMA ratio, mean constant (after approximately 2 h) ([1]; bupropion-pretreated EMs): 0.20; metabolite/MDMA ratio, mean initial (highest, first hour) ([1]; bupropion-pretreated EMs): 0.10; tonset (time of first detection), mean ([1]; placebo-pretreated CYP2D6 EMs): 0.38 h; metabolite/MDMA ratio, mean constant (after approximately 2 h) ([1]; placebo-pretreated EMs): 1.3; metabolite/MDMA ratio, mean initial (highest, first hour) [1, 16]: 5.6 |
| CN[C@@H](C)Cc1ccc(OS(=O)(=O)O)c(OC)c1 [S-HMMA sulfate] |  | 4.2 | 410 | 6.6 | 1.6 | 1.6 | 110 | 11.1 | 2.8 | 2.2 (0.75) μmol/l*h-1 | -61 | -72 | 1.7 | 140 | 6.9 | 2.5 | 4.6 (1.2) μmol/l*h-1 | 1.9 (0.34) μmol/l*h-1 | metabolite/MDMA ratio, mean constant (after approximately 2 h) ([1]; IMs): 0.28; metabolite/MDMA ratio, mean initial (highest, first hour) ([1]; IMs): 2.3; tonset (time of first detection), mean [1, 12]: 0.56 h; metabolite/MDMA ratio, mean constant (after approximately 2 h) ([1]; bupropion-pretreated EMs): 0.21; metabolite/MDMA ratio, mean initial (highest, first hour) ([1]; bupropion-pretreated EMs): 0.26; tonset (time of first detection), mean ([1]; placebo-pretreated CYP2D6 EMs): 0.33 h; metabolite/MDMA ratio, mean constant (after approximately 2 h) ([1]; placebo-pretreated EMs): 0.86; metabolite/MDMA ratio, mean initial (highest, first hour) [1, 16]: 17.7 |
| CC(N)Cc1ccc2c(c1)OCO2 (stereo not drawn) [S-MDA, 3,4-methylenedioxyamphetamine] |  | 0.61 | 41 | 9.2 | 4.6 | 0.49 | 31 | 11.1 | 5.2 | 0.69 (0.17) μmol/l*h-1 | -20 | -24 | 0.65 | 42 | 10.6 | 4.4 | 0.76 (0.27) μmol/l*h-1 | 0.87 (0.31) μmol/l*h-1 |  |
| CN[C@@H](C)Cc1ccc2c(c1)OCO2 [S-MDMA, 3,4-methylenedioxymethamphetamine] |  | 4.9 | 560 | 4.5 | 2.1 | 6.8 | 650 | 5.7 | 2.5 | 7.2 (1.7) μmol/l*h-1 | 38 | 16 | 6.8 | 720 | 5.1 | 2.3 | 5.1 (1.5) μmol/l*h-1 | 7.1 (2.0) μmol/l*h-1 | prolongation of t1/2 after bupropion pretreatment [1, 17]: 26%; reduction of Cl/F after bupropion pretreatment [1, 17]: -31%; CL/F S [1, 11]: 50.5 (13.5) l/h; CL/F S [1, 14]: 72.8 (26.2) l/h; CL/F S [1, 15]: 50.4 (12.6) l/h |
| C[C@H](NC(C)(C)C)C(=O)c1cccc(Cl)c1 [S-bupropion, bupropion] | did not significantly alter |  |  |  |  |  |  |  |  |  |  |  |  |  |  |  |  |  | half-life ([4]; 300 mg, t1/2 S/ S,S, bupropion+placebo (P), CYP2B6 genotype normal): 7.3 h; half-life ([4]; 300 mg, t1/2 S/ S,S, bupropion+placebo (P), CYP2B6 genotype reduced): 7.8 h; half-life ([4]; t1/2 S/ S,S, bupropion+MDMA (M), CYP2B6 genotype normal): 7.5 h; half-life ([4]; t1/2 S/ S,S, bupropion+MDMA (M), CYP2B6 genotype reduced): 6.8 h |
| CC(NC(C)(C)C)C(=O)c1cccc(Cl)c1 (stereo not drawn) [bupropion] |  |  |  |  |  |  |  |  |  |  |  |  |  |  |  |  |  |  | T1/2 [6]: 20 h; DAT occupancy in the human striatum ([7]; 150 mg twice-daily, 3 h after last dose, 11C-βCIT-FE PET, ref [16]): 26%; striatal DAT occupancy ([7]; 2.5 h after single 150 mg, 11C-raclopride PET, ref [83]): no significant |
